# Measured values as given in patent EP0041488A1, “Therapeutically useful tetralin derivatives” (Arvidsson, Folke Lars-Erik, priority 1980, dated 1981).
# Marks after values point to notes of the source that are not given here.
# Key:
# [1] = system: Male Wistar rats; assay: Hetero-sexual (masculine copulatory) behaviour in normal male rats; assay type: in vivo, rat; conditions: median
# Description: (§1) Male Wistar rats (12 months old; sexually experienced) were injected i.p. every second day in a balanced order with different doses of the compounds dissolved in physiological saline and injected in a volume of 2 ml/kg. Testing was begun 15 min after the drug treatment.
# (§2) Mating arenas were 50' cm diameter acrylic glass cages with wood shavings on the floor. The stimulus females were of Wistar strain, primed with estradiol benzoate . (20 µg/animal) 48 h prior to testing and progesterone ([…]/animal) 4-6 h before testing.
# (§3) The occurrence of mounts, intromissions and ejaculations were scored by an experienced observer. The measures of masculine copulatory behavior further included mount latency and intromission latency which are time from introduction of the stimulus female to the first mount and first intromission respectively. A copulatory series includes the mounts and intromissions preceding an ejaculation. Ejaculatory latency is the time from the first .intromission in a copulatory series to the ejaculation terminating that series. The postejaculatory interval is the time from an ejaculation to the next intromission. Tests were terminated when the rat had achieved one ejaculation and started the second series of copulations, or, if the intromission latency was >15 min, the ejaculation latency was >30 min, or the postejaculatory interval was >15 min.
# [2] = system: castrated male rats; assay: Sexual behaviour in castrated male rats (preliminary); assay type: in vivo, rat
# Description: as §1, §2, §3
# [3] = system: central 5-HT receptors; assay: In-vivo determination of rat brain tryptophan hydroxylation (5-HTP formation) after reserpine pretreatment; conditions: reserpine-pretreated rats; for "ED70%" for 5-HTP reduction: s.c., dose giving 70 % of the control 5-HTP level, similar values for limbic forebrain, striatum and hemispheral portions
# Description: b. In-vivo determination of rat brain tyrosine and tryptophan hydroxylation after reserpine pretreatment (biochemical DA- and 5-HT receptor activity).
# The compounds under evaluation were tested biochemically for central DA- and 5-HT-receptor (pre- and/or postsynaptic) stimulating activity. The concept of this biochemical screening method is that a DA- or 5-HT-receptor agonist will stimulate the receptor and through regulatory feedback systems effect a decline-in tyrosine or tryptophan hydroxylating activity, respectively, and a subsequent reduction in the synthesis rate for DA and 5-HT in the presynaptic neuron. Dopa and 5-HTP formation. as determined after in-vivo inhibition of the aromatic L-amino acid decarboxylase with NSO 1015 (3-hydroxybenzylhydrazine hydrochloride) are taken as indirect measures of DA- and 5-HT-synthesis rates, respectively.
# Rats (150-300 g) pretreated with reserpine (5 mg/kg, 18 h before) were given the compounds under evaluation. Gross behavioural observations (changes in motility, hindleg abduction etc; c.f. above) were made. Subsequent administration of NSD 1015, decapitation, brain dissection [cerpera striate, the limbic ferebrain and the remaining hemispheral portions (mainly cortex) of rat brain], homogenization, centrifugation, ion-exchange chromatography and spectro- fluorimetric measurements (all as described in detail by Wikström et al., J. Med. Chem., 21, 864-867, 1978 and references cited therein) gave the actual dopa and 5-HTP levels. Several doses (n=4-6) were tested for each compound and brain area. The dose of a compound giving 70 % of the control 5-HTP.level in the rat brain part was then estimated.
# [4] = subgroup 3 of biochemical potency
# [5] = subgroup 1 of biochemical potency
compound,measurement,setting,value
"CCCN(CCC)C1CCc2cccc(OC)c2C1 (racemic) [Compound 8, 2-(di-n-propylamino)-8-methoxytetralin]",Mounts (number),"[1]; 1 mg/kg i.p., 15 min after treatment, control 2",0^* b)
same,Ejaculatory latency,"[1]; 1 mg/kg i.p., 15 min after treatment, control 4.75",3.20 min
same,Postejaculatory interval,"[1]; 1 mg/kg i.p., 15 min after treatment, control 5.50",6.40 min
same,Intromissions (number),"[1]; 1 mg/kg i.p., 15 min after treatment, control 9",8
same,Mounts (number),"[1]; 2 mg/kg i.p., 15 min after treatment, control 2",1
same,Ejaculatory latency,"[1]; 2 mg/kg i.p., 15 min after treatment, control 4.75",2.65 min
same,Postejaculatory interval,"[1]; 2 mg/kg i.p., 15 min after treatment, control 5.50",5.05 min
same,Intromissions (number),"[1]; 2 mg/kg i.p., 15 min after treatment, control 9",7^***
same,Mounts (number),"[1]; 4 mg/kg i.p., 15 min after treatment, control 2",1^***
same,Ejaculatory latency,"[1]; 4 mg/kg i.p., 15 min after treatment, control 4.75",1.55^*** min
same,Postejaculatory interval,"[1]; 4 mg/kg i.p., 15 min after treatment, control 5.50",4.55 min
same,Intromissions (number),"[1]; 4 mg/kg i.p., 15 min after treatment, control 9",3.5^***
same,Mounts (number),"[1]; 8 mg/kg i.p., 15 min after treatment, control 2",0^**
same,Ejaculatory latency,"[1]; 8 mg/kg i.p., 15 min after treatment, control 4.75",0.45^*** min
same,Postejaculatory interval,"[1]; 8 mg/kg i.p., 15 min after treatment, control 5.50",5.05 min
same,Intromissions (number),"[1]; 8 mg/kg i.p., 15 min after treatment, control 9",1.5^***
same,Mounts (number),"[1]; 16 mg/kg i.p., 15 min after treatment, control 2",0^***
same,Ejaculatory latency,"[1]; 16 mg/kg i.p., 15 min after treatment, control 4.75",0.55^*** min
same,Postejaculatory interval,"[1]; 16 mg/kg i.p., 15 min after treatment, control 5.50",4.55 min
same,Intromissions (number),"[1]; 16 mg/kg i.p., 15 min after treatment, control 9",1^***
same,castrated male rats that ejaculated,"[2]; 8 mg/kg, out of 9 rats (of the 2 with intromissions), preliminary",1
same,castrated male rats that made intromissions,"[2]; 8 mg/kg, out of 9 rats (of the 5 that mounted), preliminary",2
same,castrated male rats that mounted the female,"[2]; 8 mg/kg, out of 9 rats, none of 9 saline-treated showed any sexual activity, preliminary",5
same,sexual activity of male rats rendered sexual inactive by castration,[2]; preliminary experiments,became sexual active
same,"""ED70%"" for 5-HTP reduction",[3],0.4 µmol/kg
"CCCN(CCC)C1CCc2cccc(OC)c2C1 (single isomer, unassigned; (+)) [(+)-8]",Mounts (number),"[1]; 4 mg/kg i.p., 15 min after treatment, control 2, listed as (+)-8 · HCl",1^*
same,Ejaculatory latency,"[1]; 4 mg/kg i.p., 15 min after treatment, control 4.75, listed as (+)-8 · HCl",1.05^*** min
same,Postejaculatory interval,"[1]; 4 mg/kg i.p., 15 min after treatment, control 5.50, listed as (+)-8 · HCl",6.15 min
same,Intromissions (number),"[1]; 4 mg/kg i.p., 15 min after treatment, control 9, listed as (+)-8 · HCl",2^***
same,"""ED70%"" for 5-HTP reduction",[3],0.2 to 0.4 µmol/kg
"CCCN(CCC)C1CCc2cccc(OC)c2C1 (single isomer, unassigned; (-)) [(-)-8]",Mounts (number),"[1]; 4 mg/kg i.p., 15 min after treatment, control 2, listed as (-)-8 · HCl",0.5^*
same,Ejaculatory latency,"[1]; 4 mg/kg i.p., 15 min after treatment, control 4.75, listed as (-)-8 · HCl",1.30^*** min
same,Postejaculatory interval,"[1]; 4 mg/kg i.p., 15 min after treatment, control 5.50, listed as (-)-8 · HCl",5.65 min
same,Intromissions (number),"[1]; 4 mg/kg i.p., 15 min after treatment, control 9, listed as (-)-8 · HCl",4.5^**
same,"""ED70%"" for 5-HTP reduction",[3],0.3 to 0.4 µmol/kg
CCCCN(CCCC)C1CCc2cccc(OC)c2C1 (stereo not shown) [Compound 10],"""ED70%"" for 5-HTP reduction",[3],25 µmol/kg
same,"""ED70%""",[3]; [4],above 10 umol/kg
CNC1CCc2cccc(O)c2C1 (stereo not shown) [Compound 14],"""ED70%"" for 5-HTP reduction",[3],1.5 to 10 µmol/kg
CCCNC1CCc2cccc(O)c2C1 (stereo not shown) [Compound 15],"""ED70%"" for 5-HTP reduction",[3],0.4 µmol/kg
CCCCNC1CCc2cccc(O)c2C1 (stereo not shown) [Compound 16],"""ED70%"" for 5-HTP reduction",[3],6 µmol/kg
CC(C)NC1CCc2cccc(O)c2C1 (stereo not shown) [Compound 17],"""ED70%"" for 5-HTP reduction",[3],8 µmol/kg
CCCCCCCCNC1CCc2cccc(O)c2C1 (stereo not shown) [Compound 18],"""ED70%"" for 5-HTP reduction",[3],50 µmol/kg
same,"""ED70%""",[3]; [4],above 10 umol/kg
CCCN(CC)C1CCc2cccc(O)c2C1 (stereo not shown) [Compound 19],"""ED70%"" for 5-HTP reduction",[3],0.09 µmol/kg
"Br.CCCN(CCC)C1CCc2cccc(O)c2C1 (stereo not shown) [Compound 20, 2-(di-n-propylamino)-8-hydroxytetralin hydrobromide]",Mounts (number),"[1]; 4 mg/kg i.p., second experiment (N 9), control 1",0
same,Ejaculatory latency,"[1]; 4 mg/kg i.p., second experiment (N 9), control 1.80",0.25 min
same,Postejaculatory interval,"[1]; 4 mg/kg i.p., second experiment (N 9), control 4.45",4.75 min
same,Intromissions (number),"[1]; 4 mg/kg i.p., second experiment (N 9), control 5",1^***
same,"""ED70%"" for 5-HTP reduction",[3],0.06 µmol/kg
same,"""ED70%""",[3]; [5],0.01 to 1.0 µmol/kg
CCCCN(CCC)C1CCc2cccc(O)c2C1 (stereo not shown) [Compound 21],"""ED70%"" for 5-HTP reduction",[3],0.5 µmol/kg
same,"""ED70%""",[3]; [5],0.01 to 1.0 µmol/kg
CCCCN(CCCC)C1CCc2cccc(O)c2C1 (stereo not shown) [Compound 22],"""ED70%"" for 5-HTP reduction",[3],8 µmol/kg
CCCN(Cc1ccccc1)C1CCc2cccc(O)c2C1 (stereo not shown) [Compound 23],"""ED70%"" for 5-HTP reduction",[3],3 µmol/kg
Oc1cccc2c1CC(N1CCCCC1)CC2 (stereo not shown) [Compound 24],"""ED70%"" for 5-HTP reduction",[3],<20 µmol/kg
